PubChem BioAssay (NCI)
“And” between values parts separate entries of the source, which are not always exact repeats. Equal entries are not always repeated.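 Each compound was tested at five concentrations against cells in 96-well plates for 48 hours. GI50 = concentration required for 50% inhibition of growth. TGI: total growth inhibition.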

Tests used:
Assay in all cases: growth of human tumour cells (NCI), 48 h
[1] = test system: HOP-92 NSCLC
[2] = test system: NCI/ADR-RES ovarian
[3] = test system: NCI-H460 lung
[4] = test system: HOP-62 NSCLC
[5] = test system: MDA-MB-435
[6] = test system: NCI-H226 lung
[7] = test system: HS 578T breast
[8] = test system: SR leukemia
[9] = test system: MDA-MB-231 breast
[10] = test system: DU-145 prostate
[11] = test system: MCF7 breast
[12] = test system: OVCAR-3 ovarian
[13] = test system: UACC-62 melanoma
[14] = test system: XF 498 CNS
[15] = test system: KM20L2 colon
[16] = test system: DMS 273 small cell lung
[17] = test system: DLD-1 colon
[18] = test system: DMS 114 small cell lung

SMILES	TGI [1]	TGI [2]	TGI [3]	TGI [4]	TGI [5]	TGI [6]	TGI [7]	TGI [8]	TGI [9]	TGI [10]	TGI [11]	TGI [12]	TGI [13]	TGI [14]	TGI [15]	TGI [16]	TGI [17]	TGI [18]	GI50 [1]	GI50 [15]
CC(=O)OC/C=C\Cn1nc(Br)c(=O)[nH]c1=O	27.9 µM	56 µM	26.7 µM	45.1 µM	29.4 µM	30.1 µM	54 µM	15.6 µM	43.4 µM	31.9 µM	28.5 µM	22.5 µM	–	–	–	–	–	–	–	–
CNC(=O)SCC(N)C(=O)O (stereo not drawn)	> 100 µM	> 100 µM	> 100 µM	> 100 µM	–	> 100 µM	–	–	–	–	> 100 µM	> 100 µM	> 100 µM	> 100 µM	> 100 µM	> 100 µM	> 100 µM	> 100 µM	–	–
CC(=O)NC(c1nc2cc(C)c(C)cc2[nH]1)c1nc2cc(C)c(C)cc2[nH]1	43.3 µM	89.2 µM	32.8 µM	–	42.3 µM	–	79.2 µM	–	76 µM	57.7 µM	> 100 µM	42.2 µM	> 100 µM	–	–	–	–	–	–	–
CC1CCC2(C(=O)O)CCC3(C)C(=CCC4C5(C)CCC(O)C(C)(C)C5CCC43C)C2C1C (stereo not drawn)	21.1 µM and 42.6 µM	23.7 µM and 40.7 µM	24.8 µM	21.8 µM and 39.1 µM	75.1 µM	18.7 µM and 37.7 µM	25.2 µM	59.8 µM	26.2 µM	21.6 µM	25.6 µM and 43.7 µM	18.4 µM and 26.8 µM	18.8 µM and 44 µM	11.7 µM	17.5 µM	22 µM	17 µM	21.5 µM	–	–
OC1CCOc2ccccc21 (stereo not drawn)	–	–	> 100 µM	> 100 µM	–	> 100 µM	–	> 100 µM	–	–	–	> 100 µM	> 100 µM	> 100 µM	> 100 µM	> 100 µM	> 100 µM	> 100 µM	–	–
CCC(=O)c1ccc2[nH]c3c(C)c4c(=O)cc(C)[nH]c4c(C)c3c2c1	82.3 µM	> 100 µM	> 100 µM	> 100 µM	> 100 µM	> 100 µM	> 100 µM	> 100 µM	> 100 µM	> 100 µM	> 100 µM	–	–	–	–	–	–	–	–	–
Cc1[nH]nc(N)c1C(N)=O	–	–	–	–	–	–	–	–	–	–	–	–	> 100 µM	> 100 µM	> 100 µM	> 100 µM	> 100 µM	> 100 µM	–	–
COc1cccc(/C=N/[N-]C(N)=O)c1[O-].[Ni+2].[OH3+].c1ccc(-c2ccccn2)nc1	98.1 µM	–	> 100 µM	> 100 µM	–	> 100 µM	–	–	–	–	–	> 100 µM	> 100 µM	–	> 100 µM	–	–	–	–	–
CCOC(=O)c1c(Cl)nc2ccccc2c1N=[N+]=[N-]	59.5 µM	–	63.6 µM	> 100 µM	47.1 µM	> 100 µM	77.8 µM	> 100 µM	30.1 µM	–	–	39.7 µM	–	–	–	–	–	–	–	–
S=C1CC(c2ccccc2)Sc2ccccc2N1 (stereo not drawn)	–	> 100 µM	> 100 µM	60.1 µM	> 100 µM	> 100 µM	> 100 µM	> 100 µM	> 100 µM	> 100 µM	> 100 µM	> 100 µM	> 100 µM	–	–	–	–	–	–	–
COc1cc(OC)c(/C=C\c2cc(/C=C/c3c(OC)cc(OC)cc3OC)c3ccccc3[n+]2C)c(OC)c1	8.08 µM	> 100 µM	8.92 µM	16.3 µM	6.43 µM	23.6 µM	97.9 µM	–	10.2 µM	20.9 µM	> 39.8 µM	6.17 µM	16.5 µM	–	–	–	–	–	–	–
C/C=C/C1=CC(=O)C(O)C1O (stereo not drawn)	66 µM	66.1 µM	51.4 µM	126 µM	–	62.5 µM	–	–	–	–	122 µM	67.7 µM	88.6 µM	45.6 µM	> 80.9 µM	98.9 µM	122 µM	72.5 µM	–	–
NC(=O)CCC(N=C(N)c1csc(C2OC(CO)C(O)C2O)n1)C(=O)O (stereo not drawn)	–	–	–	–	–	–	–	–	–	–	–	–	> 100 µM	> 100 µM	> 100 µM	> 100 µM	> 100 µM	> 100 µM	–	–
O=C(N/N=C/c1cc(Cl)cc(Cl)c1[O-])c1ccccc1O.O=C(N/N=C/c1cc(Cl)cc(Cl)c1[O-])c1ccccc1O.[Zn+2]	4.98 µM	–	–	–	–	7.61 µM	–	1.55 µM	–	–	–	1.85 µM	1.84 µM	–	5.17 µM	–	–	–	0.363 µM	2.05 µM
